From patent US10961202B2, “Bis-benzimidazole compounds and methods of using the same” (THE SCRIPPS RESEARCH INSTITUTE, priority 2017, dated 2021)

Experiments:
[1] = test system: MBNL1 exon 5 inclusion in DM1 myotubes; assay: Myotube splicing rescue assay (MBNL1 exon 5 inclusion); type: cell-based, human; details: 48-hour incubation
r(CUG)12-MBNL1 complex = assay: Inhibition of the r(CUG)12-MBNL1 complex measured by TR-FRET; type: biochemical; details: 80 nM RNA, 60 nM MBNL1-His6

Row | IC50 (r(CUG)12-MBNL1 complex; Table L) [µM] | IC50 (r(CUG)12-MBNL1 complex; Table M) [µM] | SMILES | MBNL1 % splicing rescue at 10 μM [1] [%] | MBNL1 % splicing rescue at 1 μM [1] [%]
1 | 6.8 | – | O=C(NCCN1CCNCC1)c1ccc2nc(-c3ccc(-c4nc5ccc(C(=O)NCCN6CCNCC6)cc5[nH]4)cc3)[nH]c2c1 [Compound 47, 2,2′-(1,4-phenylene)bis(N-(2-(piperazin-1-yl)ethyl)-1H-benzo[d]imidazole-6-carboxamide)] | 12.8 | –
2 | 3.6 | – | N=C(N)NCCC(=O)Nc1ccc2nc(-c3ccc(-c4nc5ccc(NC(=O)CCNC(=N)N)cc5[nH]4)cc3)[nH]c2c1 [Compound 65] | – | 31.7
3 | 5 | – | CCN(CC)CCNC(=O)c1ccc(-c2nc3cc(-c4ccc5[nH]c(-c6ccc(C(=O)NCCN(CC)CC)cc6)nc5c4)ccc3[nH]2)cc1 [Compound 112] | 66.5 | –
4 | 7.1 | – | O=C(NCCN1CCCC1)c1ccc(-c2nc3cc(-c4ccc5[nH]c(-c6ccc(C(=O)NCCN7CCCC7)cc6)nc5c4)ccc3[nH]2)cc1 [Compound 115] | 57.5 | –
5 | 5.3 | – | O=C(NCCN1CCCCC1)c1ccc(-c2nc3cc(-c4ccc5[nH]c(-c6ccc(C(=O)NCCN7CCCCC7)cc6)nc5c4)ccc3[nH]2)cc1 [Compound 116] | 74.7 | –
6 | 9.5 | – | O=C(NCCN1CCCCC1)c1ccc2nc(-c3ccc(-c4nc5ccc(C(=O)NCCN6CCNCC6)cc5[nH]4)cc3)[nH]c2c1 [Compound 126, N-(2-(piperazin-1-yl)ethyl)-2-(4-(6-((2-(piperidin-1-yl)ethyl)carbamoyl)-1H-benzo[d]imidazol-2-yl)phenyl)-1H-benzo[d]imidazole-6-carboxamide] | 29.6 | 16.6
7 | 15.8 | – | O=C(NCCN1CCC(O)CC1)c1ccc2[nH]c(-c3ccc(-c4nc5ccc(C(=O)NCCN6CCC(O)CC6)cc5[nH]4)cc3)nc2c1 [Compound 146] | 7.1 | 0.8
8 | 7.4 | – | CN(C)CCNC(=O)c1ccc2nc(-c3ccc(-c4nc5ccc(NC6=NCCN6C6=NCCN6)cc5[nH]4)cc3)[nH]c2c1 [Compound 148] | 1.7 | –
9 | 6.1 | – | CN(C)CCNC(=O)c1ccc2nc(-c3ccc(-c4nc5ccc(NC6=NCCN6)cc5[nH]4)cc3)[nH]c2c1 [Compound 149] | −1.1 | –
10 | 29.6 | – | c1cc(-c2nc3ccc(N4CCNCC4)cc3[nH]2)ccc1-c1nc2ccc(N3CCNCC3)cc2[nH]1 [Compound 150] | 41.0 | –
11 | – | 22 | O=C(NCCN1CCCCC1)c1ccc2nc(-c3ccc(-c4nc5ccc(C(=O)NCCN6CCCCC6)cc5[nH]4)c([N+](=O)[O-])c3)[nH]c2c1 [Compound 173, 2,2′-(2-nitro-1,4-phenylene)bis(N-(2-(piperidin-1-yl)ethyl)-1H-benzo[d]imidazole-6-carboxamide)] | 23.1 | 1.5
12 | – | 4.32 | O=C(NCCN1CCCCC1)c1ccc2nc(-c3ccc(-c4nc5ccc(C(=O)NCCN6CCCCC6)cc5[nH]4)c(F)c3)[nH]c2c1 [Compound 174] | 1.9 | 5.2
13 | – | 5.52 | Nc1cc(-c2nc3ccc(C(=O)NCCN4CCCCC4)cc3[nH]2)ccc1-c1nc2ccc(C(=O)NCCN3CCCCC3)cc2[nH]1 [Compound 176, 2,2′-(2-amino-1,4-phenylene)bis(N-(2-(piperidin-1-yl)ethyl)-1H-benzo[d]imidazole-6-carboxamide)] | −5.0 | –

More lines, now with the values behind:

Row | SMILES | IC50 (r(CUG)12-MBNL1 complex; Table L) [µM] | IC50 (r(CUG)12-MBNL1 complex; Table M) [µM] | MBNL1 % splicing rescue at 10 μM [1] [%] | MBNL1 % splicing rescue at 1 μM [1] [%]
14 | C[N+](C)(C)CCOC(=O)c1ccc2nc(-c3ccc(-c4nc5ccc(C(=O)OCC[N+](C)(C)C)cc5[nH]4)cc3)[nH]c2c1 [Compound 55, 2,2′-((2,2′-(1,4-phenylene)bis(1H-benzo[d]imidazole-6,6′-carbonyl))bis(oxy))bis(N,N,N-trimethylethanaminium) chloride] | 4.2 | – | 12.0 | –
15 | CN(C)CCSc1ccc2nc(-c3ccc(-c4nc5ccc(SCCN(C)C)cc5[nH]4)cc3)[nH]c2c1 [Compound 59, 2,2′-((2,2′-(1,4-phenylene)bis(1H-benzo[d]imidazole-6,2-diyl))bis(sulfanediyl))bis(N,N-dimethylethanamine)] | 10.8 | – | −17.6 | –
16 | c1cc2nc(-c3ccc(-c4nc5ccc(NC6=NCCN6C6=NCCN6)cc5[nH]4)cc3)[nH]c2cc1NC1=NCCN1C1=NCCN1 [Compound 77] | 10.8 | – | 4.2 | –
17 | CC(C)N(CCNC(=O)c1ccc(-c2nc3cc(-c4ccc5[nH]c(-c6ccc(C(=O)NCCN(C(C)C)C(C)C)cc6)nc5c4)ccc3[nH]2)cc1)C(C)C [Compound 113] | 12.6 | – | 45.3 | 7.9
18 | Nc1ccc(-c2nc3cc(-c4ccc5[nH]c(-c6ccc(NC7=NCCN7C7=NCCN7)cc6)nc5c4)ccc3[nH]2)cc1 [Compound 160] | 19.2 | – | 63.0 | –
19 | CN(C)CCCOc1ccc2nc(-c3ccc(-c4ccc(-c5nc6ccc(OCCCN(C)C)cc6[nH]5)cc4)cc3)[nH]c2c1 [Compound 170] | – | 6.14 | 85.5 | 24.6
20 | CN(C)CCCOc1ccc2nc(-c3ccc(-c4nc5ccc(NC6=NCCN6C6=NCCN6)cc5[nH]4)cc3)[nH]c2c1 [Compound 171] | – | 9.66 | 7.8 | 11.5
21 | [N-]=[N+]=NCCN1CCN(CCNC(=O)c2ccc3nc(-c4ccc(-c5nc6ccc(C(=O)NCCN7CCCCC7)cc6[nH]5)cc4)[nH]c3c2)CC1 [Compound 172, N-(2-(4-(2-azidoethyl)piperazin-1-yl)ethyl)-2-(4-(6-((2-(piperidin-1-yl)ethyl)carbamoyl)-1H-benzo[d]imidazol-2-yl)phenyl)-1H-benzo[d]imidazole-6-carboxamide] | – | 28.3 | 14.2 | 22.1
22 | NCCN1CCN(CCNC(=O)c2ccc3nc(-c4ccc(-c5nc6ccc(C(=O)NCCN7CCCCC7)cc6[nH]5)cc4)[nH]c3c2)CC1 [Compound 185, N-(2-(4-(2-aminoethyl)piperazin-1-yl)ethyl)-2-(4-(6-((2-(piperidin-1-yl)ethyl)carbamoyl)-1H-benzo[d]imidazol-2-yl)phenyl)-1H-benzo[d]imidazole-6-carboxamide] | – | 8.13 | 39.2 | –
23 | CN(C)CCCCCOc1ccc2nc(-c3ccc(-c4nc5ccc(OCCCCCN(C)C)cc5[nH]4)cc3)[nH]c2c1 [Compound 192] | – | 12.9 | 111.7 | –
24 | NCCCOc1ccc2nc(-c3ccc(-c4nc5ccc(OCCCN)cc5[nH]4)cc3)[nH]c2c1 [Compound 201, 3,3′-((1,4-phenylenebis(1H-benzo[d]imidazole-2,6-diyl))bis(oxy))bis(propan-1-amine)] | – | 16.4 | −13.2 | –
25 | CN(C)CCCS(=O)(=O)c1ccc2[nH]c(-c3ccc(-c4nc5cc(S(=O)(=O)CCCN(C)C)ccc5[nH]4)cc3)nc2c1 [Compound 202, 3,3′-(2,2′-(1,4-phenylene)bis(1H-benzo[d]imidazole-6,6′-sulfonyl))bis(N,N-dimethylpropan-1-amine)] | – | 42 | 34.0 | –
26 | CN(C)CCCOc1ccc2nc(-c3ccc(-c4nc5ccc(OCCCN)cc5[nH]4)cc3)[nH]c2c1 [Compound 205, 3-((2-(4-(6-(3-aminopropoxy)-1H-benzo[d]imidazol-2-yl)phenyl)-1H-benzo[d]imidazol-6-yl)oxy)-N,N-dimethylpropan-1-amine] | – | 27.3 | −48.4 | –
27 | CN(C)CCCCCCOc1ccc2nc(-c3ccc(-c4nc5ccc(OCCCCCCN(C)C)cc5[nH]4)cc3)[nH]c2c1 [Compound 212] | – | 5.3 | 77.0 | –
28 | CN(C)CCc1cn(-c2ccc3nc(-c4ccc(-c5nc6ccc(-n7cc(CCN(C)C)nn7)cc6[nH]5)cc4)[nH]c3c2)nn1 [Compound 221] | – | 2.53 | −2.5 | –
29 | CN(C)CCCOc1ccc2nc(-c3ccc(-c4nc5ccc(OCCCC(=O)OC(C)(C)C)cc5[nH]4)cc3)[nH]c2c1 [Compound 252, tert-butyl 4-((2-(4-(5-(3-(dimethylamino)propoxy)-1H-benzo[d]imidazol-2-yl)phenyl)-1H-benzo[d]imidazol-5-yl)oxy)butanoate] | – | 18.9 | 13.0 | –
30 | C#CCOc1cc(-c2nc3ccc(OCCCN(C)C)cc3[nH]2)ccc1-c1nc2ccc(OCCCN(C)C)cc2[nH]1 [Compound 255, 3,3′-((2,2′-(2-(prop-2-yn-1-yloxy)-1,4-phenylene)bis(1H-benzo[d]imidazole-6,2-diyl))bis(oxy))bis(N,N-dimethylpropan-1-amine)] | – | 3.7 | 89.2 | –
31 | CN(C)CCCOc1ccc2nc(-c3ccc(-c4nc5ccc(OCCCN(C)C)cc5[nH]4)c(O)c3)[nH]c2c1 [Compound 256, 2,5-bis(6-(3-(dimethylamino)propoxy)-1H-benzo[d]imidazol-2-yl)phenol] | – | 10.7 | 90.6 | –
32 | CN(C)CCCOc1ccc2nc(-c3ccc(-c4nc5ccc(OCCCN(C)C)cc5[nH]4)c(Cl)c3)[nH]c2c1 [Compound 257, 3,3′-((2,2′-(2-chloro-1,4-phenylene)bis(1H-benzo[d]imidazole-6,2-diyl))bis(oxy))bis(N,N-dimethylpropan-1-amine)] | – | 24.6 | 92.1 | –
33 | COCCOc1cc(-c2nc3ccc(OCCCN(C)C)cc3[nH]2)ccc1-c1nc2ccc(OCCCN(C)C)cc2[nH]1 [Compound 258, 3,3′-((2,2′-(2-(2-methoxyethoxy)-1,4-phenylene)bis(1H-benzo[d]imidazole-6,2-diyl))bis(oxy))bis(N,N-dimethylpropan-1-amine)] | – | 31 | 10.0 | –
